Experimental data reported in PMC8471380 (Molecules, 2021).
Where a name gives a salt, the structure may show the parent alone.

How the values were obtained:
[1] = molecular target: T1, porcine liver CES (Sus scrofa, UniProt Q29550); assay: CES inhibition, 4-nitrophenyl acetate hydrolysis; format: biochemical; settings: for inhibition at 20 µM: read-out: % of inhibition of CES with 20 µM concentration of the compound
T1 sequence (Q29550 19-566): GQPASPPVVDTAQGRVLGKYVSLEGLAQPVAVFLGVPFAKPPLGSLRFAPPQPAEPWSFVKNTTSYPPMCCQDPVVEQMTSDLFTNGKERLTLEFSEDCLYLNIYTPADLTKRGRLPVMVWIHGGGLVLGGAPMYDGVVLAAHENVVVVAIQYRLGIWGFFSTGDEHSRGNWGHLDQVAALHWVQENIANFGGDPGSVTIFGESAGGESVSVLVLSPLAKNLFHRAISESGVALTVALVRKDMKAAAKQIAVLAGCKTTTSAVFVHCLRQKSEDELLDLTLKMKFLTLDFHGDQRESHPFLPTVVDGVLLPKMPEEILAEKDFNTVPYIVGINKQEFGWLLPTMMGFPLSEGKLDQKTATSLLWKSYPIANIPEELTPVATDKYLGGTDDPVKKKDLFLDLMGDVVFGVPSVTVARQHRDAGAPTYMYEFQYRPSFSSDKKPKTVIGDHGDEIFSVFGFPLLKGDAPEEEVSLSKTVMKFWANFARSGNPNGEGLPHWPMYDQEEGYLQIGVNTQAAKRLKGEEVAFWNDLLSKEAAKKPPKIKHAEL
Procedure: (§1) Reagents blanks consisted of reaction mixtures without substrates. […] Final enzyme and substrate concentrations were 0.02 unit/mL and 1 mM, respectively. Assays were carried out with a blank containing all constituents except porcine CES to assess non-enzymatic hydrolysis. The measurements were performed on a FLUOstar OPTIMA multifunctional microplate reader (BMG LABTECH, Ortenberg, Germany). The compounds were dissolved in DMSO. The incubation mixture contained 2% (v/v) of the solvent. […] The sample of the appropriate enzyme was incubated with the test compound for 5 min, and then the residual enzymatic activity was determined. Each experiment was performed in triplicate. […] Each experiment was performed in triplicate. The IC50 values were calculated with Origin 6.1 software.

[2] = tested on: tubulin and microtubule-associated proteins (Tb+MAP); assay: GTP-dependent Tb+MAP polymerization; format: biochemical, mouse; settings: 100 µM compound; for Rate of Tb+MAP Polymerization (dA355/dt): 0.1 mM GTP, 37 °C
Excerpt: A crude fraction of tubulin and microtubule-associated proteins (Tb+MAP) was isolated from mouse brain tissue by a polymerization–depolymerization method. The procedure of mouse euthanasia using cervical dislocation for Tb+MAP preparation is in compliance with the Guidelines for Animal Experiments, which were approved by the local bioethics committee of the IPAC RAS. The freshly dissected brain was immediately placed on ice, cleared of meninges and surface blood vessels, and washed with cold buffer A (50 mM Tris-HCl, pH 6.9 at 4 °C, 2 mM EGTA). The extracted brain tissue was homogenized under ice cooling in the same buffer using a Potter S homogenizer (Sartorius). The resulting homogenate was centrifuged at 10,000× g for 30 min on an Avanti 25 centrifuge (Beckman) using a JA-14 rotor for the precipitation of non-ruptured cells. The precipitate was discarded, and the supernatant was again centrifuged at 100,000× g for 60 min at 4 °C on an Optima MAX XP centrifuge (Beckman) using a MLA-50 rotor. The precipitate was again discarded. The protein concentration in the supernatant was determined by the Bradford assay using the Bio-Rad Protein Assay kit (Bio-Rad, Hercules, CA, USA) according to manufacturer’s instructions. The resulting supernatant was a cytosolic fraction enriched in microtubular proteins (Tb and MAP).
The Tb+MAP preparation was centrifuged at 5000× g for 10 min at 4 °C immediately before polymerization in order to remove denatured and aggregated protein molecules by precipitation. The Tb+MAP polymerization was performed at 37 °C in buffer A in the presence of 0.1 mM GTP after addition of 100 µM of test compound or the same volume of vehicle (DMSO). The protein concentration in the sample was 0.2 mg/mL. The polymerization kinetics was monitored on a Victor 3 or EnVision microplate reader (Perkin Elmer, USA) at 355 nm and the stabilized rate of polymerization after the first wave was measured (dA355/dt).

[3] = molecular target: T2, PAS of EeAChE (Electrophorus electricus, UniProt O42275); format: binding; settings: 20 µM compound; 7 µM EeAChE, 8 µM propidium iodide; mean ± SEM, n = 3
T2 construct: AChE from Electrophorus electricus (EeAChE, type VI-S, lyophilized powder); purchased Sigma-Aldrich type VI-S; host or cells: Electrophorus electricus tissue
T2 sequence (O42275 24-633): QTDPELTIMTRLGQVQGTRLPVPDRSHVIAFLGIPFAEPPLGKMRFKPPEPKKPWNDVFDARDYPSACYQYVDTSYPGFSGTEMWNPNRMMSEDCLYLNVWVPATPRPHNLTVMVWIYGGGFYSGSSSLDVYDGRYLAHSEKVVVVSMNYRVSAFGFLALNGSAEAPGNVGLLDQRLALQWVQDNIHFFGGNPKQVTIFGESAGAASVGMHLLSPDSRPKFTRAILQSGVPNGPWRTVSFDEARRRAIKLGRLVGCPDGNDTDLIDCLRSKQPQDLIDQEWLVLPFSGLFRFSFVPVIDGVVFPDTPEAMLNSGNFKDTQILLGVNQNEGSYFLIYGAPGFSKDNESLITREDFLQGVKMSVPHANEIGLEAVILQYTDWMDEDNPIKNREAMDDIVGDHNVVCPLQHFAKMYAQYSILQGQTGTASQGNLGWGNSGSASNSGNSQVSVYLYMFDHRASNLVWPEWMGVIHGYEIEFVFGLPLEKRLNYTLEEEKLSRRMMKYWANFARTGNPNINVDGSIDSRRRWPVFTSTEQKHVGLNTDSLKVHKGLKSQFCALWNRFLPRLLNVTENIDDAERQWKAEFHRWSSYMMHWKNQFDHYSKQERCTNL
Procedure: The compounds were evaluated as potential inhibitors of proaggregation activity of AChE by measuring the displacement of propidium iodide from the PAS of the enzyme [53] using a fluorescence method [28]. AChE from Electrophorus electricus (EeAChE, type VI-S, lyophilized powder, Sigma-Aldrich, St. Louis, MO, USA) was used for consistency with our previous studies [8, 13, 63, 74]. The fluorescence intensity of propidium iodide bound to AChE increases several-fold. A decrease in the fluorescence intensity in the presence of the test compounds is indicative of their ability to bind to the AChE PAS and, correspondingly, to inhibit β-amyloid aggregation.
EeAChE (7 µM) was incubated with 20 µM of the test compound in 1 mM Tris-HCl buffer, pH 8.0, at 25 °C for 15 min. Then a solution of propidium iodide was added (final concentration 8 µM), the mixture was incubated for 15 min, and the fluorescence spectrum was recorded (excitation at 530 nm and emission at 600 nm). […] The blank contained propidium iodide at the same concentration in 1 mM Tris-HCl buffer, pH 8.0 at 25 °C. The measurements were performed in triplicate on a FLUOstar OPTIMA multifunctional microplate reader.
The degree of displacement of propidium iodide from the PAS of AChE (% displacement) was calculated by the equation:% displacement = 100 − (IFAChE + Propidium + inhibitor/IFAChE + Propidium) × 100, where IFAChE + Propidium is the fluorescence intensity of propidium iodide bound to EeAChE in the absence of the test compound (taken as 100%), and IFAChE + Propidium + inhibitor is the fluorescence intensity of propidium iodide bound to EeAChE in the presence of the test compound.

[4] = molecular target: T3, MK-801-binding (intrachannel) site of NMDA receptor (Rattus norvegicus, UniProt P35439); assay: Radioligand binding assay, [3H]MK-801 displacement
T3 construct: from tissue; host or cells: rat hippocampus membranes
Procedure: (§2) The effect of the test compounds on radioligand binding to NMDA receptors was evaluated by a modified method, as previously reported [83]. The following two radioligands were used: [^3H] […] A hippocampal membrane preparation for the radioligand binding assay was made as described previously [86, 87]. The obtained membrane pellet was resuspended in a working buffer (5 mM HEPES/4.5 mM Tris, pH 7.6 at 4 °C) in a ratio of 1:5 and stored in liquid nitrogen. The reaction mixture (the final volume was 0.5 mL) contained the working buffer (200 μL), a 50 nM radioligand solution (50 μL) and the membrane suspension (250 μL). The nonspecific binding was evaluated in the presence of 1 mM of the unlabeled ligand (50 μL).
(§3) For the binding assay, the reaction mixture was incubated at room temperature for 2 h. After the incubation, the samples were filtered through GF/B glass fiber filters (Whatman), washed with the working buffer, dried and transferred to scintillation vials. Then the scintillation fluid (5 mL), which is composed of diphenyloxazole (PPO) (4 g) and bis(5-phenyl-2-oxazolyl)benzene (POPOP) (0.2 g) in toluene (1 L) were added to the vials.
(§4) The effect of the test compounds on the binding of [^3H] […] The values of Ki were calculated according to a previously described method [88].

[5] = tested on: isolated rat liver mitochondria; assay: Ca2+-induced mitochondrial swelling (MPT pore opening); format: biochemical; settings: 30 µM compound; 12.5 µM Ca2+; 10 mM glutamate, 2 mM malate, 10 mM succinate; percentage relative to the reference compound
Procedure: Experiments were performed using outbred male rats weighing 200–220 g. The animals were housed under standard vivarium conditions in a normal day/night cycle and had ad libitum access to water and food. The procedure of rat euthanasia using carbon dioxide (CO2) inhalation for mitochondria preparation is in compliance with the Guidelines for Animal Experiments, which were approved by the local bioethics committee of the IPAC RAS.
Rat liver mitochondria were isolated by conventional differential centrifugation. Membrane potential of rat liver mitochondria was measured using the potential-sensitive fluorescent probe Safranine A on a Victor 3 multilabel plate reader (Perkin Elmer, Waltham, MA, USA). The fluorescence was recorded at λex = 485 nm and λem = 590 nm. Mitochondrial swelling was measured by spectrophotometry in 96-well clear bottom plates on a Victor 3 microplate reader (Perkin Elmer, Waltham, MA, USA) at 620 nm; CaCl2 was added to induce mitochondrial swelling (MPT opening).

[6] = molecular target: T4, ifenprodil-binding site of NMDA receptor (NR2B subunit) (Rattus norvegicus, UniProt P35439+Q00960); assay: Radioligand binding assay, [3H]ifenprodil displacement
T4 construct: from tissue; host or cells: rat hippocampus membranes
T4 sequence (Q00960 27-1482, other chains not shown): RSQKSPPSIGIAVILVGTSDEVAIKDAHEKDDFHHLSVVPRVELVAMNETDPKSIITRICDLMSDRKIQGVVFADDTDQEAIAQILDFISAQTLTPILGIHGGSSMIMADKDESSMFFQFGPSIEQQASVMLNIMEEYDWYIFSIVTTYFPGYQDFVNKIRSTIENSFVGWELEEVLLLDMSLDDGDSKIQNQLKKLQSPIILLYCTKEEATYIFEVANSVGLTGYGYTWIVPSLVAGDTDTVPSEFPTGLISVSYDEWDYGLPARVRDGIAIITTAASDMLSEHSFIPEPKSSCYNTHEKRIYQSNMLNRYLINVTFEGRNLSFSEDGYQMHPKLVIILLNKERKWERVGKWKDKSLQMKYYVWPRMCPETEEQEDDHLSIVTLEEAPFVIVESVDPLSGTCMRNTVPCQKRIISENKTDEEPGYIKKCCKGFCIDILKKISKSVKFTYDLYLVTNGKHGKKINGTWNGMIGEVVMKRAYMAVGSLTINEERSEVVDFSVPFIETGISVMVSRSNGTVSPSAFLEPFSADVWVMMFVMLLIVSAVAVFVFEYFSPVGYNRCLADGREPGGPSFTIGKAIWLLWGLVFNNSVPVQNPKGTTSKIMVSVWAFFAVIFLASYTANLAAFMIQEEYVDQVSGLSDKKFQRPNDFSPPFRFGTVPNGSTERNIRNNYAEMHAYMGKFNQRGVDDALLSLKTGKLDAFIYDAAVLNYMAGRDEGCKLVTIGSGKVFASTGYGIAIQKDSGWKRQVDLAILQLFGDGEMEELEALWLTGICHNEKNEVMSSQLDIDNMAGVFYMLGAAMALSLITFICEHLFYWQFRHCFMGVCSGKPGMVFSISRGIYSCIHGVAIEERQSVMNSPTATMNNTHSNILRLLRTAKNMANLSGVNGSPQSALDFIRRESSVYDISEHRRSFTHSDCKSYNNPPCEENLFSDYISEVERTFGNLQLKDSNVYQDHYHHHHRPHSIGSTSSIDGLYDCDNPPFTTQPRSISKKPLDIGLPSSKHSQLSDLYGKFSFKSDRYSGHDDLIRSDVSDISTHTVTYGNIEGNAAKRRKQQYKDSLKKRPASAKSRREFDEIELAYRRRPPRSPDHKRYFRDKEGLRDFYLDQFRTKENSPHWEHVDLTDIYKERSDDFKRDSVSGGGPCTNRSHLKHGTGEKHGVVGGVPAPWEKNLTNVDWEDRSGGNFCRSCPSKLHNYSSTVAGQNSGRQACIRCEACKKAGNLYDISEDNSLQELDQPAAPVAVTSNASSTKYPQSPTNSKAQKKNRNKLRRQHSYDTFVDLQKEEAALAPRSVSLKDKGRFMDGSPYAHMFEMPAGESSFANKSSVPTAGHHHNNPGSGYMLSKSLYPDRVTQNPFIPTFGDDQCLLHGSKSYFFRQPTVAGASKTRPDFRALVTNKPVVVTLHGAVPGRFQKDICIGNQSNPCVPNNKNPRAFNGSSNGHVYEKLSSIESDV
Procedure: as §2, §3, §4

[7] = molecular target: T5, human erythrocyte AChE (Homo sapiens, UniProt P22303); assay: biochemical; settings: mean ± SEM, n = 3; for inhibition at 20 µM: read-out: % of inhibition of AChE with 20 µM concentration of the compound, 20 µM compound; for IC50: 5 min incubation
T5 construct: commercial human erythrocyte AChE; purchased Sigma; host or cells: human erythrocytes
T5 sequence (P22303 32-617 isoform P22303-2 limits assumed): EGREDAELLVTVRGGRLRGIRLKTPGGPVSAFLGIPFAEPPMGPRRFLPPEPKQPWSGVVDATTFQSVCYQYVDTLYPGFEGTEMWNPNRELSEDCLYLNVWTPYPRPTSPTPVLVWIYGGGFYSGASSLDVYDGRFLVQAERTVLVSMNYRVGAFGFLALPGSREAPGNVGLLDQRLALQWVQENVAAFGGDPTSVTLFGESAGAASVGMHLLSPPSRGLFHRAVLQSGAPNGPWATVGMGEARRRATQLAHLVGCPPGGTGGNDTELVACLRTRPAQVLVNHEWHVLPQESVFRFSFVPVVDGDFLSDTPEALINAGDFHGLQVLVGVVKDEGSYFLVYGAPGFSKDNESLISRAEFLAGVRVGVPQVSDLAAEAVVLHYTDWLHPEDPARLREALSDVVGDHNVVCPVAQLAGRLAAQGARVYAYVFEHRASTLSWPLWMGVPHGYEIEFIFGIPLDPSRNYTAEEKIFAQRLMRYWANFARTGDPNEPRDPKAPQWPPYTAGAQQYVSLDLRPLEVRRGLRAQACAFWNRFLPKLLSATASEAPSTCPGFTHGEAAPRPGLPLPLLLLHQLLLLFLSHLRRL

[8] = molecular target: T6, equine serum BChE (Equus caballus, UniProt P81908); assay: biochemical; settings: mean ± SEM, n = 3; for IC50: 5 min incubation
T6 construct: equine serum BChE; purchased Sigma; host or cells: equine serum
T6 sequence (P81908 whole entry): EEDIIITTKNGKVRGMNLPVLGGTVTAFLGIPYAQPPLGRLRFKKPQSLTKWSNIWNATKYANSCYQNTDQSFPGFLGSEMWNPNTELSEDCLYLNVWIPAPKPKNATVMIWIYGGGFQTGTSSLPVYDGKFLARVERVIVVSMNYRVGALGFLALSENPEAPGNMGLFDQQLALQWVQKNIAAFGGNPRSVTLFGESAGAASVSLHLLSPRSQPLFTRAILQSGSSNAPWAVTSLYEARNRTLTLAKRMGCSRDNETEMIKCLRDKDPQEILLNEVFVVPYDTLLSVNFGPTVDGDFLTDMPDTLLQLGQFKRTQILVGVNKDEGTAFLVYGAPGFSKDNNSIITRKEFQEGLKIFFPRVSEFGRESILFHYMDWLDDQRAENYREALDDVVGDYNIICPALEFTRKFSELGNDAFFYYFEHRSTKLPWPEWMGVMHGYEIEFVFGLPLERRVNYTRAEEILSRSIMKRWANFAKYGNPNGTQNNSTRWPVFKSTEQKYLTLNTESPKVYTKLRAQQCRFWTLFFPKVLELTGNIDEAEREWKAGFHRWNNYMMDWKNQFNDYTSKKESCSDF
Procedure: as §1

| Structure (SMILES) | IC50 ([1]; 5 min incubation, mean ± SEM, n = 3) | Rate of Tb+MAP Polymerization (dA355/dt) [2] | % of Displacement of Propidium Iodide from the PAS of EeAChE [3] | Ki [4] | Rate of Ca2+-Induced Mitochondrial Swelling (dA620/dt) [5] | Ki [6] | inhibition at 20 µM [7] | IC50 [8] | inhibition at 20 µM [1] | IC50 [7] | Increase of the rate of Tb+MAP polymerization, factor [2] | inhibition at 20 µM ([8]; read-out: % of inhibition of BChE with 20 µM concentration of the compound, 20 µM compound) |
| --- | --- | --- | --- | --- | --- | --- | --- | --- | --- | --- | --- | --- |
| O=[N+]([O-])c1ccc(OP(=O)(O)Oc2ccc([N+](=O)[O-])cc2)cc1 [BNPP, bis-4-nitrophenyl phosphate, reference compound] | 1.8 ± 0.11 µM | – | – | – | – | – | – | – | – | – | – | – |
| CN1CCc2c(c3ccccc3n2CCNC23CC4CC(C)(CC(C)(C4)C2)C3)C1.Cl.Cl [Compound 4a, 3,5-Dimethyl-N-(2-(2-methyl-3,4-dihydro-1H-pyrido[4,3-b]indol-5(2H)-yl)ethyl)-adamantane-1-amine dihydrochloride] | – | 126 ± 9% | 12.5 ± 1.1% | 1.9 ± 0.2 µM | 33 ± 4% | 1.7 ± 0.2 µM | 19.5 ± 0.3% | 0.666 ± 0.037 µM | 15.6 ± 0.3% | – | – | – |
| Cc1ccc2c(c1)c1c(n2CCNC23CC4CC(C)(CC(C)(C4)C2)C3)CCN(C)C1.Cl.Cl [Compound 4b, N-(2-(2,8-Dimethyl-3,4-dihydro-1H-pyrido[4,3-b]indol-5(2H)-yl)ethyl)-3,5-dimethyladamantane-1-amine dihydrochloride] | – | 153 ± 33% | 14.7 ± 0.9% | 7.9 ± 0.8 µM | 39 ± 7% | 8.8 ± 1 µM | – | 5.07 ± 0.09 µM | 10.4 ± 0.5% | 50.3 ± 3.4 µM | – | – |
| CN1CCc2c(c3ccccc3n2CCNC23CC4CC(CC(C4)C2)C3)C1.Cl.Cl [Compound 4d, N-(2-(2-Methyl-3,4-dihydro-1H-pyrido[4,3-b]indol-5(2H)-yl)ethyl)adamantane-1-amine dihydrochloride] | – | 162 ± 19% | 10.1 ± 0.9% | 3.3 ± 0.3 µM | 35 ± 13% | 4.4 ± 0.3 µM | – | 2.48 ± 0.22 µM | 2.9 ± 0.8% | 112 ± 5 µM | – | – |
| Cc1ccc2c(c1)c1c(n2CCNC23CC4CC(CC(C4)C2)C3)CCN(C)C1.Cl.Cl [Compound 4e, N-(2-(2,8-Dimethyl-3,4-dihydro-1H-pyrido[4,3-b]indol-5(2H)-yl)ethyl)adamantane-1-amine dihydrochloride] | – | 239 ± 21% | 15.1 ± 1.2% | 10.3 ± 1.6 µM | 42 ± 9% | 8.2 ± 0.9 µM | – | 9.05 ± 0.8 µM | 2.5 ± 0.5% | 63.3 ± 3.3 µM | – | – |
| CN1CCc2c(c3cc(F)ccc3n2CCNC23CC4CC(CC(C4)C2)C3)C1.Cl.Cl [Compound 4f, N-(2-(8-Fluoro-2-methyl-3,4-dihydro-1H-pyrido[4,3-b]indol-5(2H)-yl)ethyl)adamantane-1-amine dihydrochloride] | – | 356 ± 14% | 17.8 ± 1.5% | 5.4 ± 0.6 µM | 42 ± 8% | 5.1 ± 0.5 µM | – | 2.53 ± 0.1 µM | 8.6 ± 1.7% | 13.6 ± 1.3 µM | > 3.5 | – |
| CN1CCc2c(c3ccccc3n2CC(=O)NC23CC4CC(C)(CC(C)(C4)C2)C3)C1 [Compound 8a, 3,5-Dimethyladamantan-1-yl)-2-(2-methyl-3,4-dihydro-1H-pyrido[4,3-b]indol-5(2H)-yl)acetamide hydrochloride] | – | 237 ± 55% | – | 63.5 ± 5.8 µM | 42 ± 21% | 113 ± 10.4 µM | 7.1 ± 0.5% | 9.66 ± 0.52 µM | 5.2 ± 1.2% | – | – | – |
| Cc1ccc2c(c1)c1c(n2CC(=O)NC23CC4CC(C)(CC(C)(C4)C2)C3)CCN(C)C1.Cl [Compound 8b, 2-(2,8-Dimethyl-3,4-dihydro-1H-pyrido[4,3-b]indol-5(2H)-yl)-N-(3,5-dimethyladamantan-1-yl)acetamide hydrochloride] | – | 314 ± 46% | 2.8 ± 0.2% | 55.1 ± 5.1 µM | 87 ± 33% | 89.7 ± 8.7 µM | 17.7 ± 1.4% | 33.7 ± 3.5 µM | 6.4 ± 0.5% | – | – | – |
| CN1CCc2c(c3cc(F)ccc3n2CC(=O)NC23CC4CC(C)(CC(C)(C4)C2)C3)C1.Cl [Compound 8c, N-(3,5-Dimethyladamantan-1-yl)-2-(8-fluoro-2-methyl-3,4-dihydro-1H-pyrido[4,3-b]indol-5(2H)-yl)acetamide hydrochloride] | – | 359 ± 25% | – | 80.6 ± 8.5 µM | 63 ± 25% | 110 ± 10.8 µM | 17.3 ± 0.8% | 6 ± 0.06 µM | 8.4 ± 0.9% | – | > 3.5 | – |
| CN1CCc2c(c3cc(F)ccc3n2CC(=O)NC23CC4CC(CC(C4)C2)C3)C1.Cl [Compound 8f, N-(Adamantan-1-yl)-2-(8-fluoro-2-methyl-3,4-dihydro-1H-pyrido[4,3-b]indol-5(2H)-yl)acetamide hydrochloride] | – | 154 ± 14% | – | 47.3 ± 4.7 µM | 61 ± 24% | 73.8 ± 7 µM | 22.1 ± 1.8% | 17.1 ± 1.3 µM | 6.2 ± 0.6% | – | – | – |
| Cc1ccc2c(c1)c1c(n2CCc2ccc(C)nc2)CCN(C)C1 [dimebon, reference compound] | – | 162 ± 23% | 4.1 ± 0.3% | 50.4 ± 4.3 µM | 36 ± 11% | 77.2 ± 5.7 µM | – | – | – | – | – | – |
| CC12CC3CC(C)(C1)CC(N)(C3)C2 [memantine, reference compound] | – | 89 ± 7% | – | – | 70 ± 9% | – | 1.3 ± 0.2% | – | 3 ± 0.4% | – | – | 13.7 ± 1.5% |
